# Test results: US10471046B2, “Method for treating, preventing, or reducing the risk of skin infection” (Melinta Subsidiary Corp., priority 2014, dated 2019)
# Tested on: S. aureus
# Test: Minimum inhibitory concentrations (MICs) for S. aureus of exemplary compounds (Table 2)
# Format: cell-based
# Conditions: Staphylococcus aureus, minimum inhibitory concentrations for S. aureus; read-out: MICs
# Summary of the method: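 Growth of S. aureus in media with or without compound, by broth microdilution in microtiter trays following NCCLS M7-A5 guidelines. Values are MICs in μg/mL.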
row,Structure (SMILES),MIC
1,"CC(=O)NC[C@H]1CN(c2ccc(-c3ccc(CNCc4c[nH]c(=O)[nH]c4=O)cc3)c(F)c2)C(=O)O1 [Compound 4101, N-[3-(4′-{[(2,4-Dioxo-1,2,3,4-tetrahydro-pyrimidin-5-ylmethyl)-amino]-methyl}-2-fluoro-biphenyl-4-yl)-2-oxo-oxazolidin-5-(S)-ylmethyl]-acetamide]",1 µg/mL
2,"CC(=O)NC[C@H]1CN(c2ccc(-c3ccc(CNCC4OCCO4)cc3)c(F)c2)C(=O)O1 [Compound 4209, N-[3-(4′-{[([1,3]Dioxolan-2-ylmethyl)-amino]-methyl}-2-fluoro-biphenyl-4-yl)-2-oxo-oxazolidin-5-(S)-ylmethyl]-acetamide]",0.5 µg/mL
3,"CC(=O)NC[C@H]1CN(c2ccc(-c3ccc(CN(CCCF)OCc4ccccc4)cc3)c(F)c2)C(=O)O1 [Compound 4265, N-[3-(4′-{[Benzyloxy-(3-fluoro-propyl)-amino]-methyl}-2-fluoro-biphenyl-4-yl)-2-oxo-oxazolidin-5-(S)-ylmethyl]-acetamide]",4 µg/mL
4,"CC(=O)NC[C@H]1CN(c2ccc(-c3ccc(CNCc4sc(C)nc4C)cc3)c(F)c2)C(=O)O1 [Compound 4108, N-[3-(4′-{[(2,4-Dimethyl-thiazol-5-ylmethyl)-amino]-methyl}-2-fluoro-biphenyl-4-yl)-2-oxo-oxazolidin-5-(S)-ylmethyl]-acetamide]",4 µg/mL
5,"CC(=O)NC[C@H]1CN(c2ccc(-c3ccc(Cn4cc(C)nc4C)cc3)c(F)c2)C(=O)O1 [Compound 1068, N-{3-[4′-(2,4-Dimethyl-imidazol-1-ylmethyl)-2-fluoro-biphenyl-4-yl]-2-oxo-oxazolidin-5-(S)-ylmethyl}-acetamide]",1 µg/mL
6,"CC(=O)NC[C@H]1CN(c2ccc(-c3ccc(CNCCCNc4ncc(C(F)(F)F)cc4Cl)cc3)c(F)c2)C(=O)O1 [Compound 5015, N-[3-(4′-{[3-(3-Chloro-5-trifluoromethyl-pyridin-2-ylamino)-propylamino]-methyl}-2-fluoro-biphenyl-4-yl)-2-oxo-oxazolidin-5-(S)-ylmethyl]-acetamide]",4 µg/mL
7,"CC(=O)NC[C@H]1CN(c2ccc(-c3ccc(C(C)NC(C)c4ccncc4)cc3)c(F)c2)C(=O)O1 (mixture of isomers) [Compound 4160, N-(3-{2-Fluoro-4′-[1-(R/S)-(1-pyridin-4-(R/S)-yl-ethylamino)-ethyl]-biphenyl-4-yl}-2-oxo-oxazolidin-5-(S)-ylmethyl)-acetamide]",8 µg/mL
8,"CC(=O)NC[C@H]1CN(c2ccc(-c3ccc(CN4CC(CF)OC4=O)cc3)c(F)c2)C(=O)O1 (mixture of isomers) [Compound 1095, N-{3-[2-Fluoro-4′-(5-fluoromethyl-2-oxo-oxazolidin-3-(R/S)ylmethyl)-biphenyl-4-yl]-2-oxo-oxazolidin-5-(S)-ylmethyl}-acetamide]",0.5 µg/mL
9,"CC(=O)NC[C@H]1CN(c2ccc(-c3ccc(C(=O)NCc4nccs4)nc3)c(F)c2)C(=O)O1 [Compound 4189, 5-{4-[5-(S)-(Acetylamino-methyl)-2-oxo-oxazolidin-3-yl]-2-fluoro-phenyl}-pyridine-2-carboxylic acid (thiazol-2-ylmethyl)-amide]",1 µg/mL
10,"CC(=O)NC[C@H]1CN(c2ccc(-c3ccc([C@@H](O)CNCc4ccncc4)cc3)c(F)c2)C(=O)O1 [Compound 4201, N-[3-(2-Fluoro-4′-{1-(R)-hydroxy-2-[(pyridin-4-ylmethyl)-amino]-ethyl}-biphenyl-4-yl)-2-oxo-oxazolidin-5-(S)-ylmethyl]-acetamide]",2 µg/mL
11,"CC(=O)NC[C@H]1CN(c2ccc(-c3ccc(CNC(=O)C4(N)CC4)cc3)c(F)c2)C(=O)O1 [Compound 4321, 1-Amino-cyclopropanecarboxylic acid {4′-[5-(S)-(acetylamino-methyl)-2-oxo-oxazolidin-3-yl]-2′-fluoro-biphenyl-4-ylmethyl}-amide]",2 µg/mL
12,"CC(=O)NC[C@H]1CN(c2ccc(-c3ccc(CNCCCn4ccnc4)cc3)c(F)c2)C(=O)O1 [Compound 4079, N-(3-{2-Fluoro-4′-[(3-imidazol-1-yl-propylamino)-methyl]-biphenyl-4-yl}-2-oxo-oxazolidin-5-(S)-ylmethyl)-acetamide]",32 µg/mL
13,"CCSc1nnn(Cc2ccc(-c3ccc(N4C[C@H](CNC(C)=O)OC4=O)cc3F)cc2)n1 [Compound 1082, N-{3-[4′-(5-Ethylsulfanyl-tetrazol-2-ylmethyl)-2-fluoro-biphenyl-4-yl]-2-oxo-oxazolidin-5-(S)-ylmethyl}-acetamide]",0.5 µg/mL
14,"CC(=O)NC[C@H]1CN(c2ccc(-c3ccc(C[S+]([O-])c4ncnn4C)cc3)c(F)c2)C(=O)O1 (stereo partly drawn) [Compound 2039, N-{3-[2-Fluoro-4′-(2-methyl-2H-[1,2,4]triazole-3-sulfinylmethyl)-biphenyl-4-yl]-2-oxo-oxazolidin-5-(S)-ylmethyl}-acetamide]",2 µg/mL
15,"CC(=O)NC[C@H]1CN(c2ccc(-c3ccc(CN(C)C(=O)c4cccn4C)cc3)c(F)c2)C(=O)O1 [Compound 4051, 1-Methyl-1H-pyrrole-2-carboxylic acid {4′-[5-(S)-(acetylamino-methyl)-2-oxo-oxazolidin-3-yl]-2′-fluoro-biphenyl-4-ylmethyl}-methyl-amide]",4 µg/mL
16,"CC(=O)NC[C@H]1CN(c2ccc(-c3ccc(CNCc4c[nH]c5ccccc45)cc3)c(F)c2)C(=O)O1 [Compound 4083, N-[3-(2-Fluoro-4′-{[(1H-indol-3-ylmethyl)-amino]-methyl}-biphenyl-4-yl)-2-oxo-oxazolidin-5-(S)-ylmethyl]-acetamide]",2 µg/mL
17,"CC(=O)NC[C@H]1CN(c2ccc(-c3ccc(CNCc4nccs4)cc3)c(F)c2)C(=O)O1 [Compound 4074, N-[3-(2-Fluoro-4′-{[(thiazol-2-ylmethyl)-amino]-methyl}-biphenyl-4-yl)-2-oxo-oxazolidin-5-(S)-ylmethyl]-acetamide]",1 µg/mL
18,"CC(=O)NC[C@H]1CN(c2ccc(-c3ccc(CNCCSc4ncc[nH]4)cc3)c(F)c2)C(=O)O1 [Compound 5008, N-[3-(2-Fluoro-4′-{[2-(1H-imidazol-2-ylsulfanyl)-ethylamino]-methyl}-biphenyl-4-yl)-2-oxo-oxazolidin-5-(S)-ylmethyl]-acetamide]",2 µg/mL
19,"CC(=O)NC[C@H]1CN(c2ccc(-c3ccc(CNC(=O)/C=C/c4cccnc4)cc3)c(F)c2)C(=O)O1 [Compound 4002, N-{4′-[5-(S)-(Acetylamino-methyl)-2-oxo-oxazolidin-3-yl]-2′-fluoro-biphenyl-4-ylmethyl}-3-pyridin-3-yl-acrylamide]",4 µg/mL
20,"CC(=O)NC[C@H]1CN(c2ccc(-c3ccc(CNN4CCN(C)CC4)cc3)c(F)c2)C(=O)O1 [Compound 2057, N-(3-{2-Fluoro-4′-[(4-methyl-piperazin-1-ylamino)-methyl]-biphenyl-4-yl}-2-oxo-oxazolidin-5-(S)-ylmethyl)-acetamide]",1 µg/mL
21,"CC(=O)NC[C@H]1CN(c2ccc(-c3ccc(CNCCc4cnn[nH]4)cc3)c(F)c2)C(=O)O1 [Compound 4266, N-[3-(2-Fluoro-4′-{[2-(3H-[1,2,3]triazol-4-yl)-ethylamino]-methyl}-biphenyl-4-yl)-2-oxo-oxazolidin-5-(S)-ylmethyl]-acetamide]",4 µg/mL
22,"CC(=O)NC[C@H]1CN(c2ccc(-c3ccc(Cn4nnnc4C)cc3)c(F)c2)C(=O)O1 [Compound 1058, N-{3-[2-Fluoro-4′-(5-methyl-tetrazol-1-ylmethyl)-biphenyl-4-yl]-2-oxo-oxazolidin-5-(S)-ylmethyl}-acetamide]",0.5 µg/mL
23,"CC(=O)NC[C@H]1CN(c2ccc(-c3ccc(Cn4cncn4)nc3)c(F)c2)C(=O)O1 [Compound 1072, N-{3-[3-Fluoro-4-(6-[1,2,4]triazol-1-ylmethyl-pyridin-3-yl)-phenyl]-2-oxo-oxazolidin-5-(S)-ylmethyl}-acetamide]",1 µg/mL
24,"CC(=O)NC[C@H]1CN(c2ccc(-c3ccc(CNC(C)c4cnn[nH]4)cc3)c(F)c2)C(=O)O1 (mixture of isomers) [Compound 4278, N-[3-(2-Fluoro-4′-{[1-(R/S)-(3H-[1,2,3]triazol-4-yl)-ethylamino]-methyl}-biphenyl-4-yl)-2-oxo-oxazolidin-5-(S)-ylmethyl]-acetamide]",2 µg/mL
25,"CC(=O)NC[C@H]1CN(c2ccc(-c3ccc(CNCc4csc(-c5cccs5)n4)cc3)c(F)c2)C(=O)O1 [Compound 4113, N-[3-(2-Fluoro-4′-{[(2-thiophen-2-yl-thiazol-4-ylmethyl)-amino]-methyl}-biphenyl-4-yl)-2-oxo-oxazolidin-5-(S)-ylmethyl]-acetamide]",0.25 µg/mL
26,"CC(=O)NC[C@H]1CN(c2ccc(-c3ccc(CNC(=O)c4csc(NCc5ccc(Cl)cc5)n4)cc3)c(F)c2)C(=O)O1 [Compound 4207, 2-(4-Chloro-benzylamino)-thiazole-4-carboxylic acid {4′-[5-(S)-(acetylamino-methyl)-2-oxo-oxazolidin-3-yl]-2′-fluoro-biphenyl-4-ylmethyl}-amide]",2 µg/mL
27,"CC(=O)NC[C@H]1CN(c2ccc(-c3ccc(CNCc4cccnc4F)cc3)c(F)c2)C(=O)O1 [Compound 4257, N-[3-(2-Fluoro-4′-{[(2-fluoro-pyridin-3-ylmethyl)-amino]-methyl}-biphenyl-4-yl)-2-oxo-oxazolidin-5-(S)-ylmethyl]-acetamide]",0.5 µg/mL
28,"COc1cc(CNCc2ccncc2)ccc1-c1ccc(N2C[C@H](CNC(C)=O)OC2=O)cc1F [Compound 4027, N-[3-(2-Fluoro-2′-methoxy-4′-{[(pyridin-4-ylmethyl)-amino]-methyl}-biphenyl-4-yl)-2-oxo-oxazolidin-5-(S)-ylmethyl]-acetamide]",8 µg/mL
29,"CC(=O)NC[C@H]1CN(c2ccc(-c3ccc(CNCc4ccc(N5CCOCC5)nc4)cc3)c(F)c2)C(=O)O1 [Compound 4118, N-[3-(2-Fluoro-4′-{[(6-morpholin-4-yl-pyridin-3-ylmethyl)-amino]-methyl}-biphenyl-4-yl)-2-oxo-oxazolidin-5-(S)-ylmethyl]-acetamide]",8 µg/mL
30,"CC(=O)NC[C@H]1CN(c2ccc(-c3ccc([C@H](O)CN4CCN(C=O)CC4)cc3)c(F)c2)C(=O)O1 [Compound 1044, N-(3-{2-Fluoro-4′-[2-(4-formyl-piperazin-1-yl)-1-(S)-hydroxy-ethyl]-biphenyl-4-yl}-2-oxo-oxazolidin-5-(S)-ylmethyl)-acetamide]",0.5 µg/mL
